Patent US11807625B2, “Capsid inhibitors for the prevention of HIV” (Gilead Sciences, Inc., priority 2019, dated 2023)
Like-named read-outs stand apart in the source and are kept apart here.

Test: PK of compound of Formula (Ia) after single subcutaneous dose of solution formulations in beagle dogs
Type: in vivo
Details: male, beagle, dog, plasma, sc; for AUC(0-t): 6 mg/kg, mean ± SD, SC 6 mg/kg, solution V, 300 mg/mL
Method: Formulations containing the compound of Formula (Ia), or a pharmaceutically acceptable salt thereof, were prepared as solutions and optionally administered subcutaneously or intramuscularly to rats, rabbits, and/or dogs.
A solution of about 400 mg/mL of the compound of Formula (Ia) having 17.00 w/w % water, 36.40 w/w % PEG 300, 35.20 w/w % of a sodium salt of a compound of Formula (Ia), 5.00 w/w % ethanol, and 6.40 w/w % poloxamer 188 was prepared. The solution was administered subcutaneously to male beagle dogs at a dose level of about 12 mg/kg and male Wistar Han rats at a dose level of about 50 mg/kg. The pharmacokinetic profiles were determined, and the results for dogs are summarized in Table and Table, while the results for rats are summarized in Table and Table below.
A solution of about 500 mg/mL of the compound of Formula (Ia) having 14.06 w/w % water, 30.12 w/w % PEG 300, […] of a sodium salt of a compound of Formula (Ia), 5.00 w/w % ethanol, and 6.40 w/w % poloxamer 188 was prepared. The solution was administered subcutaneously to male beagle dogs at a dose level of about 12 mg/kg and male Wistar Han rats at a dose level of about 50 mg/kg. The pharmacokinetic profiles were determined, and the results for dogs are summarized in Table and Table, while the results for rats are summarized in Table and Table below.
A solution of about 300 mg/mL of the compound of Formula (Ia) having 23.33 w/w % water, 48.99 w/w % PEG 300, 26.47 w/w % of a sodium salt of a compound of Formula (Ia), and 1.21 w/w % poloxamer 188 was prepared. The solution was administered subcutaneously to male beagle dogs at a dose level of about 6 mg/kg and male Wistar Han rats at a dose level of about 50 mg/kg. The pharmacokinetic profiles were determined, and the results for dogs are summarized in Table and Table, while the results for rats are summarized in Table and Table below.
A solution of about 400 mg/mL of the compound of Formula (Ia) having 18.80 w/w % water, 40.25 w/w % PEG 300, 34.38 w/w % of a sodium salt of a compound of Formula (Ia), 5.00 w/w % ethanol, and 1.57 w/w % poloxamer 188 was prepared. The solution was administered subcutaneously to male beagle dogs at a dose level of about 12 mg/kg and male Wistar Han rats at a dose level of about 50 mg/kg. The pharmacokinetic profiles were determined, and the results for dogs are summarized in Table and Table, while the results for rats are summarized in Table and Table below.
A solution of about 500 mg/mL of the compound of Formula (Ia) having 16.29 w/w % water, 34.88 w/w % PEG 300, 41.92 w/w % of a sodium salt of a compound of Formula (Ia), 5.00 w/w % ethanol, and 1.91 w/w % poloxamer 188 was prepared. The solution was administered subcutaneously to male beagle dogs at a dose level of about 12 mg/kg and male Wistar Han rats at a dose level of about 50 mg/kg. The pharmacokinetic profiles were determined, and the results for dogs are summarized in Table and Table, while the results for rats are summarized in Table and Table below.
A solution of about 400 mg/mL of the compound of Formula (Ia) having 20.90 w/w % water, 44.72 w/w % PEG 300, and 34.38 w/w % of a sodium salt of a compound of Formula (Ia) was prepared. The solution was administered subcutaneously to male beagle dogs at a dose level of about 12 mg/kg and male Wistar Han rats at a dose level of about 50 mg/kg. The pharmacokinetic profiles were determined, and the results for dogs are summarized in Table and Table, while the results for rats are summarized in Table and Table below.
A solution of about 400 mg/mL of the compound of Formula (Ia) having 19.90 w/w % water, 42.59 w/w % PEG 300, 34.38 w/w % of a sodium salt of a compound of Formula (Ia), and 3.13 w/w % poloxamer 188 was prepared. The solution was administered subcutaneously to male beagle dogs at a dose level of about 12 mg/kg and male Wistar Han rats at a dose level of about 50 mg/kg. […]

[1] = 12 mg/kg, mean, n = 3 dogs, SC 12 mg/kg, solution T, 400 mg/mL
[2] = 12 mg/kg, mean, n = 3 dogs, SC 12 mg/kg, solution U, 500 mg/mL
[3] = 12 mg/kg, individual dogs, SC 12 mg/kg, solution T, 400 mg/mL
[4] = 12 mg/kg, individual dogs, SC 12 mg/kg, solution U, 500 mg/mL
[5] = 12 mg/kg, beagle dogs, SC 12 mg/kg, 400 mg/mL solution AA (6.25% poloxamer 188), Mean n = 3
[6] = 12 mg/kg, beagle dogs, SC 12 mg/kg, 400 mg/mL solution AA (6.25% poloxamer 188), animals #1-#3
[7] = 12 mg/kg, beagle dogs, SC 12 mg/kg, 400 mg/mL solution W (5.00% ethanol, 1.57% poloxamer 188), Mean n = 3
[8] = 12 mg/kg, beagle dogs, SC 12 mg/kg, 400 mg/mL solution W (5.00% ethanol, 1.57% poloxamer 188), animals #1-#3

CC(C)(C#Cc1ccc(-c2ccc(Cl)c3c(NS(C)(=O)=O)nn(CC(F)(F)F)c23)c([C@H](Cc2cc(F)cc(F)c2)NC(=O)Cn2nc(C(F)(F)F)c3c2C(F)(F)[C@@H]2C[C@H]32)n1)S(C)(=O)=O [compound of Formula (Ia)]
AUC(0-t) (n = 3 dogs, read-out: AUC0-2016 h): 107 ± 12 µM·h | AUC(0-t) (n = 3 dogs, read-out: AUC0-2253 h): 109 ± 12 µM·h | AUC(0-t) (n = 3 dogs, read-out: AUC0-2688 h): 110 ± 12 µM·h | AUC(0-t) (n = 3 dogs, read-out: AUC0-3024 h): 111 ± 13 µM·h | AUC(0-t) (n = 3 dogs, read-out: AUC0-4032 h): 112 ± 13 µM·h | AUC(0-t) (n = 3 dogs, read-out: AUC0-4368 h): 112 ± 13 µM·h | concentration at 1 h [1]: 6.07 nM | concentration at 1 h [2]: 5.59 nM | concentration at 3 h [1]: 18.1 nM | concentration at 3 h [2]: 22 nM | concentration at 8 h [3]: 83.9 nM | concentration at 8 h [1]: 72.9 nM | concentration at 8 h [2]: 61.2 nM | concentration at 24 h [3]: 233 nM | concentration at 24 h [1]: 224 nM | concentration at 24 h [2]: 134 nM | concentration at 48 h [4]: 72.8 nM | concentration at 48 h [1]: 241 nM | concentration at 48 h [2]: 87.2 nM | concentration at 72 h [4]: 49.4 nM | concentration at 72 h [1]: 223 nM | concentration at 72 h [2]: 58.6 nM | concentration at 96 h [4]: 49 nM | concentration at 96 h [1]: 232 nM | concentration at 96 h [2]: 52.4 nM | concentration at 168 h [1]: 221 nM | concentration at 168 h [2]: 97.5 nM | concentration at 336 h [3]: 179 nM | concentration at 336 h [4]: 114 nM | concentration at 336 h [1]: 261 nM | concentration at 336 h [2]: 152 nM | concentration at 504 h [3]: 286 nM | concentration at 504 h [4]: 151 nM | concentration at 504 h [1]: 238 nM | concentration at 504 h [2]: 149 nM | concentration at 672 h [3]: 150 nM | concentration at 672 h [1]: 116 nM | concentration at 672 h [2]: 81.9 nM | concentration at 840 h [1]: 90.8 nM | concentration at 840 h [2]: 72.6 nM | concentration at 1008 h [3]: 75.5 nM | concentration at 1008 h [1]: 73.6 nM | concentration at 1008 h [2]: 58.3 nM | concentration at 1344 h [3]: 42.5 nM | concentration at 1344 h [4]: 43.3 nM | concentration at 1344 h [1]: 36.2 nM | concentration at 1344 h [2]: 34.8 nM | concentration at 1680 h [3]: 19.9 nM | concentration at 1680 h [1]: 23.9 nM | concentration at 1680 h [2]: 21.3 nM | concentration at 2016 h [1]: 11.8 nM | concentration at 2016 h [2]: 10.3 nM | concentration at 2352 h [3]: 4.8 nM | concentration at 2352 h [1]: 6 nM | concentration at 2352 h [2]: 7.5 nM | concentration at 1 h [5]: 4 nM | concentration at 3 h [5]: 13.8 nM | concentration at 8 h [5]: 42.3 nM | concentration at 24 h [5]: 134 nM | concentration at 24 h [6]: 118 nM | concentration at 48 h [5]: 148 nM | concentration at 48 h [6]: 102 nM | concentration at 72 h [5]: 135 nM | concentration at 96 h [5]: 180 nM | concentration at 96 h [6]: 140 nM | concentration at 168 h [5]: 101 nM | concentration at 168 h [6]: 106 nM | concentration at 336 h [5]: 185 nM | concentration at 336 h [6]: 204 nM | concentration at 504 h [5]: 182 nM | concentration at 672 h [5]: 183 nM | concentration at 672 h [6]: 157 nM | concentration at 840 h [5]: 109 nM | concentration at 840 h [6]: 103 nM | concentration at 1008 h [5]: 85.4 nM | concentration at 1008 h [6]: 77.6 nM | concentration at 1334 h [5]: 47.6 nM | concentration at 1334 h [6]: 35.8 nM | concentration at 1680 h [5]: 28 nM | concentration at 1680 h [6]: 24 nM | concentration at 2016 h [5]: 15.4 nM | concentration at 2016 h [6]: 10.2 nM | concentration at 2352 h [5]: 10.5 nM | concentration at 2688 h (12 mg/kg, beagle dogs, SC 12 mg/kg, 400 mg/mL solution AA (6.25% poloxamer 188), 2688 h, Mean n = 3): 5.47 nM | concentration at 3024 h (12 mg/kg, beagle dogs, SC 12 mg/kg, 400 mg/mL solution AA (6.25% poloxamer 188), 3024 h, Mean n = 3): 3.54 nM | concentration at 3360 h (12 mg/kg, beagle dogs, SC 12 mg/kg, 400 mg/mL solution AA (6.25% poloxamer 188), 3360 h, Mean n = 3): 1.97 nM | concentration at 3696 h (12 mg/kg, beagle dogs, SC 12 mg/kg, 400 mg/mL solution AA (6.25% poloxamer 188), Mean): 1.56 nM | concentration at 3696 h [6]: 1.63 nM | concentration at 3 h [7]: 3.84 nM | concentration at 3 h [8]: 3.45 nM | concentration at 8 h [7]: 18 nM | concentration at 24 h [7]: 37.8 nM | concentration at 24 h [8]: 35.4 nM | concentration at 48 h [7]: 48.2 nM | concentration at 72 h [7]: 48.6 nM
